From ChEMBL document CHEMBL4177681, “Protective effect of casuarinin against glutamate-induced apoptosis in HT22 cells through inhibition of oxidative stress-mediated MAPK phosphorylation” (Bioorg Med Chem Lett, 2017)
Calls of active or inactive are those of the source. The rule behind the calls is not given here.

What was measured:
HT-22 [1] = assay: Neuroprotective activity against glutamate-induced cell death in mouse HT22 cells assessed as increase in cell viability […] after 24 hrs by MTT assay; type: functional, cell-based
HT-22 [2] = assay: Neuroprotective activity against glutamate-induced cell death in mouse HT22 cells assessed as reduction in apoptotic cells at 50 uM after 10 to 12 hrs by Annexin V-alexa 488/propidium iodide staining based flow cytometry; type: functional
HT-22 [3] = assay: Neuroprotective activity against glutamate-induced apoptosis in mouse HT22 cells assessed as apoptotic cells at 50 uM after 10 to 12 hrs by Annexin V-alexa 488/propidium iodide staining based flow cytometry (reference value: 57%); type: functional

## CC(=O)N[C@@H](CS)C(=O)O [ACETYLCYSTEINE]
HT-22 [1]
  Activity: Active
HT-22 [2]
  Activity: Active
HT-22 [3]
  Activity: 17%
